# Patent US20160158179A1, “NANOEMULSION THERAPEUTIC COMPOSITIONS AND METHODS OF USING THE SAME” (THE REGENTS OF THE UNIVERSITY OF MICHIGAN, priority 2008, published 2016)
# Key:
# [1] = tested on: Pseudomonas aeruginosa; test: MIC and MBC determination (CLSI, alamar blue), CF isolates; conditions: Pseudomonas
# [2] = tested on: Burkholderia cenocepacia; test: as above
# [3] = tested on: Stenotrophomonas maltophilia; test: as above; conditions: Stenotrophomonas
# [4] = tested on: Acinetobacter baumannii; test: MIC and MBC determination (CLSI, alamar blue); conditions: Acinetobacter
# [5] = tested on: methicillin-resistant Staphylococcus aureus (MRSA) clinical isolates; test: MIC and MBC susceptibility assays (CLSI); type: cell-based; conditions: for MIC50 (15): value at rank 15 of 29; for MIC50(26): value at rank 26 of 29
# [6] = tested on: H. influenzae clinical isolates; test: MIC and MBC susceptibility assays (CLSI); type: cell-based, Haemophilus influenzae; conditions: Haemophilus influenzae; all H. influenzae strains of Table 6; control antibiotics
# [7] = tested on: Acinetobacter strains; test: Checkerboard synergy study (FIC/FBC index); type: cell-based, Acinetobacter baumannii; conditions: in combination with P4075EC+EDTA
# [8] = tested on: Stenotrophomonas strains; test: Checkerboard synergy study (FIC/FBC index); type: cell-based, Stenotrophomonas maltophilia; conditions: in combination with P4075EC+EDTA
# [9] = tested on: Burkholderia strains; test: Checkerboard synergy study (FIC/FBC index); type: cell-based, Burkholderia cenocepacia; conditions: in combination with P4075EC+EDTA
# [10] = share of 10 Acinetobacter strains with synergy
# [11] = share of 10 Stenotrophomonas strains with synergy
# [12] = share of 10 Burkholderia strains with synergy
# [13] = MBC analysis table, silver nitrate column
compound,measurement,setting,value
C[C@H]1COc2c(N3CCN(C)CC3)c(F)cc3c(=O)c(C(=O)O)cn1c23 [Levofloxacin],MIC 50,[1],0.5 µg/mL
same,MIC 90,[1],8 µg/mL
same,MIC 90,[2]; Burkholderia,8 µg/mL
same,MIC 50,[2]; Burkholderia cenocepacia,2 µg/mL
same,MIC 90,[2]; Burkholderia cenocepacia,8 µg/mL
same,MIC 50,[3],2 µg/mL
same,MIC 90,[3],8 µg/mL
same,MIC 50,[4],16 µg/mL
same,MIC 90,[4],>16 µg/mL
Cc1onc(-c2ccccc2)c1C(=O)N[C@@H]1C(=O)N2[C@@H]1SC(C)(C)[C@@H]2C(=O)O [Ox],MIC50 (15),[5]; MRSA clinical isolates,>16 µg/mL
CN(C)[C@@H]1C(O)=C(C(N)=O)C(=O)[C@@]2(O)C(O)=C3C(=O)c4c(O)cccc4[C@@](C)(O)[C@H]3C[C@@H]12 [Tetracycline],MIC 50,[6],2 µg/mL
NC[C@H]1O[C@H](O[C@H]2[C@H](O)[C@@H](O[C@H]3O[C@H](CO)[C@@H](O)[C@H](N)[C@H]3O)[C@H](N)C[C@@H]2N)[C@H](N)C[C@@H]1O [Tobra],FBC,[7]; isolate NB31,1.50
same,FIC,[7]; isolate NB31,0.98
same,Synergy (FBC),[7]; isolate NB31,no
same,Synergy (FIC),[7]; isolate NB31,indifferent
same,FBC,[7]; isolate NB32,1.79
same,FIC,[7]; isolate NB32,0.88
same,Synergy (FBC),[7]; isolate NB32,no
same,Synergy (FIC),[7]; isolate NB32,indifferent
same,FBC,[7]; isolate NB33,1.75
same,FIC,[7]; isolate NB33,1.27
same,Synergy (FBC),[7]; isolate NB33,no
same,Synergy (FIC),[7]; isolate NB33,indifferent
same,FBC,[7]; isolate NB34,0.24
same,FIC,[7]; isolate NB34,0.41
same,Synergy (FBC),[7]; isolate NB34,yes
same,Synergy (FIC),[7]; isolate NB34,yes
same,FBC,[7]; isolate NB35,1.44
same,FIC,[7]; isolate NB35,1.21
same,Synergy (FBC),[7]; isolate NB35,no
same,Synergy (FIC),[7]; isolate NB35,indifferent
same,FIC,[7]; isolate NB36,3.30
same,Synergy (FBC),[7]; isolate NB36,no
same,Synergy (FIC),[7]; isolate NB36,indifferent
same,FBC,[7]; isolate NB37,1.72
same,FIC,[7]; isolate NB37,0.75
same,Synergy (FBC),[7]; isolate NB37,no
same,Synergy (FIC),[7]; isolate NB37,indifferent
same,FIC,[7]; isolate NB38,1.05
same,Synergy (FBC),[7]; isolate NB38,no
same,Synergy (FIC),[7]; isolate NB38,indifferent
same,FBC,[7]; isolate NB39,3.52
same,FIC,[7]; isolate NB39,3.30
same,Synergy (FBC),[7]; isolate NB39,no
same,Synergy (FIC),[7]; isolate NB39,indifferent
same,FBC,[7]; isolate NB40,3.01
same,FIC,[7]; isolate NB40,3.01
same,Synergy (FBC),[7]; isolate NB40,no
same,Synergy (FIC),[7]; isolate NB40,indifferent
same,% FBC Synergy,[7]; [10],10%
same,% FIC Synergy,[7]; [10],10%
same,FIC,[8]; isolate NB42,0.14
same,Synergy (FBC),[8]; isolate NB42,indifferent
same,Synergy (FIC),[8]; isolate NB42,yes
same,FIC,[8]; isolate NB43,1.40
same,Synergy (FBC),[8]; isolate NB43,indifferent
same,Synergy (FIC),[8]; isolate NB43,indifferent
same,FIC,[8]; isolate NB44,1.5
same,Synergy (FBC),[8]; isolate NB44,indifferent
same,Synergy (FIC),[8]; isolate NB44,indifferent
same,FBC,[8]; isolate NB45,1.50
same,FIC,[8]; isolate NB45,0.97
same,Synergy (FBC),[8]; isolate NB45,indifferent
same,Synergy (FIC),[8]; isolate NB45,indifferent
same,% FBC Synergy,[8]; [11],0%
same,% FIC Synergy,[8]; [11],20%
same,FBC,[9]; isolate NB21,0.48
same,FIC,[9]; isolate NB21,0.27
same,Synergy (FBC),[9]; isolate NB21,yes
same,Synergy (FIC),[9]; isolate NB21,yes
same,FIC,[9]; isolate NB22,0.35
same,Synergy (FBC),[9]; isolate NB22,indifferent
same,Synergy (FIC),[9]; isolate NB22,yes
same,Synergy (FBC),[9]; isolate NB23,indifferent
same,Synergy (FIC),[9]; isolate NB23,indifferent
same,Synergy (FBC),[9]; isolate NB24,indifferent
same,Synergy (FIC),[9]; isolate NB24,indifferent
same,FBC,[9]; isolate NB25,0.99
same,Synergy (FBC),[9]; isolate NB25,indifferent
same,Synergy (FIC),[9]; isolate NB25,indifferent
same,FBC,[9]; isolate NB26,0.92
same,FIC,[9]; isolate NB26,0.12
same,Synergy (FBC),[9]; isolate NB26,indifferent
same,Synergy (FIC),[9]; isolate NB26,yes
same,Synergy (FBC),[9]; isolate NB27,indifferent
same,Synergy (FIC),[9]; isolate NB27,indifferent
same,FIC,[9]; isolate NB28b,0.54
same,Synergy (FBC),[9]; isolate NB28b,indifferent
same,Synergy (FIC),[9]; isolate NB28b,yes
same,FBC,[9]; isolate NB29,0.07
same,FIC,[9]; isolate NB29,0.32
same,Synergy (FBC),[9]; isolate NB29,yes
same,Synergy (FIC),[9]; isolate NB29,yes
same,FBC,[9]; isolate NB30,0.54
same,FIC,[9]; isolate NB30,0.27
same,Synergy (FBC),[9]; isolate NB30,yes
same,Synergy (FIC),[9]; isolate NB30,yes
same,% FBC Synergy,[9]; [12],30%
same,% FIC Synergy,[9]; [12],50%
CN[C@H](CC(C)C)C(=O)N[C@H]1C(=O)N[C@@H](CC(N)=O)C(=O)N[C@H]2C(=O)N[C@H]3C(=O)N[C@H](C(=O)N[C@H](C(=O)O)c4cc(O)cc(O)c4-c4cc3ccc4O)[C@H](O)c3ccc(c(Cl)c3)Oc3cc2cc(c3O[C@@H]2O[C@H](CO)[C@@H](O)[C@H](O)[C@H]2O[C@H]2C[C@](C)(N)[C@H](O)[C@H](C)O2)Oc2ccc(cc2Cl)[C@H]1O [Vanco],MIC50 (15),[5]; MRSA clinical isolates,1 µg/mL
CCC[C@@H]1C[C@@H](C(=O)N[C@@H]([C@H]2O[C@H](SC)[C@H](O)[C@@H](O)[C@H]2O)[C@H](C)Cl)N(C)C1 [clind],MIC50 (15),[5]; MRSA clinical isolates,>64 µg/mL
"C[C@H]1c2cccc(O)c2C(O)=C2C(=O)[C@]3(O)C(O)=C(C(N)=O)C(=O)[C@@H](N(C)C)[C@@H]3[C@@H](O)[C@@H]21 [doxycyline, doxycycline]",MIC 90,[5]; clinical isolates of MRSA,4 µg/mL
O=[N+]([O-])[O-].[Ag+] [silver nitrate],MIC50 (15),[5]; [13],0.0025 µg/mL
same,MIC50(26),[5]; [13],>0.01 µg/mL
same,MIC 90,[5]; clinical isolates of MRSA,0.00063%
same,MIC50 (15),[5]; silver nitrate column,0.00031 µg/mL
same,MIC50(26),[5]; silver nitrate column,0.00063 µg/mL
CN[C@H](CC(C)C)C(=O)N[C@H]1C(=O)N[C@@H](CC(N)=O)C(=O)N[C@H]2C(=O)N[C@H]3C(=O)N[C@H](C(=O)N[C@H](C(=O)O)c4cc(O)cc(O)c4-c4cc3ccc4O)[C@H](O)c3ccc(c(Cl)c3)Oc3cc2cc(c3O[C@@H]2O[C@H](CO)[C@@H](O)[C@H](O)[C@H]2O[C@H]2C[C@](C)(N)[C@H](O)[C@H](C)O2)Oc2ccc(cc2Cl)[C@H]1O [vancomycin],bactericidal activity (MBC90 compared to MIC90),[5]; clinical isolates of MRSA,bactericidal
